In the NIST ThermoML archive (doi:10.1016/j.jct.2009.08.002):

Experiment: molar heat capacity at constant pressure; xn = mol fraction of the nth substance listed
Conditions: Liquid, Large sample (1 g) DSC

CCCCCCCC[n+]1ccn(C)c1.F[B-](F)(F)F [1-methyl-3-octylimidazolium tetrafluoroborate] + CC#N
molar heat capacity at constant pressure [J/K/mol]
Conditions | x1 = 0.0359 | x1 = 0.1135 | x1 = 0.1694 | x1 = 0.2341 | x1 = 0.3023 | x1 = 0.4285 | x1 = 0.5437 | x1 = 0.6829 | x1 = 0.8425 | x1 = 1
283.15 K | 103.7 | 133.5 | 155.3 | 181 | 208.3 | 259.1 | 305.8 | 362.2 | 426.5 | 489.8
288.15 K | 104 | 133.9 | 155.9 | 181.7 | 209.1 | 260.4 | 307.3 | 364.1 | 428.9 | 492.6
293.15 K | 104.4 | 134.4 | 156.5 | 182.4 | 210 | 261.7 | 308.9 | 366 | 431.3 | 495.4
298.15 K | 104.8 | 135 | 157.1 | 183.2 | 210.9 | 263 | 310.5 | 368 | 433.7 | 498.3
303.15 K | 105.2 | 135.5 | 157.8 | 184 | 211.9 | 264.3 | 312.2 | 370.1 | 436.2 | 501.2
308.15 K | 105.6 | 136.1 | 158.5 | 184.9 | 212.9 | 265.7 | 313.9 | 372.2 | 438.7 | 504.1
313.15 K | 106.1 | 136.7 | 159.2 | 185.7 | 213.9 | 267.1 | 315.7 | 374.4 | 441.3 | 507.1
318.15 K | 106.5 | 137.4 | 159.9 | 186.6 | 215.1 | 268.5 | 317.5 | 376.7 | 443.9 | 510.2
323.15 K | 107 | 138 | 160.7 | 187.5 | 216.2 | 269.9 | 319.3 | 379 | 446.6 | 513.3

CCCCCCn1cc[n+](C)c1.F[B-](F)(F)F [1-hexyl-3-methylimidazolium tetrafluoroborate] + CC#N
molar heat capacity at constant pressure [J/K/mol]
Conditions | 283.15 K | 288.15 K | 293.15 K | 298.15 K | 303.15 K | 308.15 K | 313.15 K | 318.15 K | 323.15 K
x1 = 0.0648 | 110.9 | 111.2 | 111.6 | 112.1 | 112.5 | 113 | 113.5 | 114 | 114.6
x1 = 0.1342 | 133.5 | 134 | 134.5 | 135 | 135.6 | 136.2 | 136.8 | 137.4 | 138.1
x1 = 0.2127 | 159.4 | 160 | 160.7 | 161.4 | 162.1 | 162.9 | 163.7 | 164.5 | 165.3
x1 = 0.2732 | 179.6 | 180.3 | 181.1 | 181.8 | 182.7 | 183.6 | 184.5 | 185.5 | 186.6
x1 = 0.3828 | 216.5 | 217.5 | 218.5 | 219.6 | 220.7 | 221.8 | 223 | 224.2 | 225.5
x1 = 0.5367 | 268.5 | 269.8 | 271.2 | 272.6 | 274 | 275.6 | 277.2 | 278.8 | 280.5
x1 = 0.7064 | 326.1 | 327.7 | 329.4 | 331.2 | 333.1 | 335.1 | 337.1 | 339.2 | 341.4
x1 = 0.8344 | 369.2 | 371.2 | 373.2 | 375.3 | 377.4 | 379.7 | 382 | 384.5 | 387
x1 = 1 | 425 | 427.2 | 429.6 | 432 | 434.6 | 437.2 | 440 | 442.9 | 445.8
